Results on four molecules are retold here after patent US6175013A, “Imidazolinyl tachykinin receptor antagonists” (Eli Lilly and Company, priority 1994, dated 2001).

In general, IC50 refers to the concentration that inhibits the measured activity by half. For orientation: inhibition means the drop in the measured response relative to a control, in per cent.

Assay [1] addresses T1, NK-1 receptor (Homo sapiens, UniProt P25103).
T1 construct: an aliquot of IM9 cells; endogenous in cells; host or cells: IM9 cells
The assay can be described thus: NK-1 Receptor Binding Assay (125I-substance P, IM9 cells). The settings on record: 20 pM 125I-labeled substance P, 45 minutes at 4° C., may be average of more than one experiment, read-out: IC50, inhibition of binding of substance P. How it is done:
(§1) The biological activity of the compounds of the present invention was evaluated employing an initial screening assay which rapidly and accurately measured the binding of the tested compound to known NK-1 and NK-2 receptor sites. Assays useful for evaluating tachykinin receptor antagonists are well known in the art. See, e.g., J. Jukic, et al., Life Sciences, 49:1463-1469 (1991); N. Kucharczyk, et al., Journal of Medicinal Chemistry, 36:1654-1661 (1993); N. Rouissi, et al., Biochemical and Bioohysical Research Communications, 176:894-901 (1991).
NK-1 Receptor Binding Assay
Radioreceptor binding assays were performed using a derivative of a previously published protocol. D. G. Payan, et al., Journal of Immunology, 133:3260-3265 (1984). In this assay an aliquot of IM9 cells (1×10^6 cells/tube in […] medium supplemented with 10% fetal calf serum) was incubated with 20 pM ^125 I-labeled substance P in the presence of increasing competitor concentrations for 45 minutes at 4° C.
The IM9 cell line is a well-characterized cell line which is readily available to the public. See, e.g., Annals of the New York Academy of Science, 190: 221-234 (1972); Nature (London), 251:443-444 (1974); Proceedings of the National Academy of Sciences (USA), 71:84-88 (1974). These cells were routinely cultured in RPMI 1640 supplemented with 50 gg/ml gentamicin sulfate and 10% fetal calf serum.
The reaction was terminated by filtration through a glass fiber filter harvesting system using filters previously soaked for 20 minutes in 0.1% polyethylenimine. Specific binding of labeled substance P was determined in the presence of 20 nM unlabeled ligand.
Column 1 provides the example number of the test antagonist compound. The second column depicts the results of the competition assays, detailing the concentration of the test compound (in micromolar quantities) which inhibits fifty percent of the binding of substance P (IC50). Certain values may represent the average of more than one experiment.

Assay [2] deals with T2, human NK-2 receptor (Homo sapiens, UniProt P21452).
T2 construct: expressed in transfected cells; host or cells: CHO-hNK-2R cells (CHO-derived)
T2 sequence (P21452 1-398): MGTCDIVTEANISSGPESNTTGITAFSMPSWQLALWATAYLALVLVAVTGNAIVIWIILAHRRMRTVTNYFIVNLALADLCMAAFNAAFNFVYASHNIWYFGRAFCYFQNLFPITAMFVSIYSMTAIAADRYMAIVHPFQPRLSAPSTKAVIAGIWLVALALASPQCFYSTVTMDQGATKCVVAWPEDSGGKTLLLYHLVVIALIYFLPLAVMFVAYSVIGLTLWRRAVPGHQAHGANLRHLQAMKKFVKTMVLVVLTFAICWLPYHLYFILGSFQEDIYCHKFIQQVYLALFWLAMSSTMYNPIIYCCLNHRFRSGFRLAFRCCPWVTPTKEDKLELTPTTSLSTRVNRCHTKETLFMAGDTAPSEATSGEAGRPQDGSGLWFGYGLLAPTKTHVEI
Description: NK-2 Receptor Binding Assay ([125I]iodohistidyl-neurokinin A, CHO-hNK-2R cell membranes). The settings on record: CHO-hNK-2R membranes, 20 pM [125I]iodohistidyl-neurokinin A; for IC50: 1 hr room temperature, read-out: IC50, inhibition of binding of neurokinin A. How it is done:
as §1
NK-2 Receptor Binding Assay
The CHO-hNK-2R cells, a CHO-derived cell line transformed with the human NK-2 receptor, expressing about 400,000 such receptors per cell, were grown in 75 cm^2 flasks or roller bottles in minimal essential medium (alpha modification) with 10% fetal bovine serum. The gene sequence of the human NK-2 receptor is given in N. P. Gerard, et al., Journal of Biological Chemistry, 65:20455-20462 (1990).
For preparation of membranes, 30 confluent roller bottle cultures were dissociated by washing each roller bottle with 10 ml of Dulbecco's phosphate buffered saline (PBS) without calcium and magnesium, followed by addition of 10 ml of enzyme-free cell dissociation solution (PBS-based, from Specialty Media, Inc.). After an additional 15 minutes, the dissociated cells were pooled and centrifuged at 1,000 RPM for 10 minutes in a clinical centrifuge. Membranes were prepared by homogenization of the cell pellets in 300 ml 50 mM Tris buffer, pH 7.4 with a Tekmar® homogenizer for 10-15 seconds, followed by centrifugation at 12,000 RPM (20,000×g) for 30 minutes using a Beckman JA-14® rotor. The pellets were washed once using the above procedure. and the final pellets were resuspended in 100-120 ml 50 mM Tris buffer, pH 7.4, and 4 ml aliquots stored frozen at -70° C. The protein concentration of this preparation was 2 mg/ml.
For the receptor binding assay, one 4-ml aliquot of the CHO-hNK-2R membrane preparation was suspended in 40 ml of assay buffer containing 50 mM Tris, pH 7.4, 3 mM manganese chloride, 0.02% bovine serum albumin (BSA) and 4 μg/ml chymostatin. A 200 μl volume of the homogenate (40 μg protein) was used per sample. The radioactive ligand was [^125 I]iodohistidyl-neurokinin A (New England Nuclear, NEX-252), 2200 Ci/mmol. […] Non-specific binding was determined using 1 μM eledoisin. […]
All samples and standards were added to the incubation in 10 μl dimethylsulfoxide (DMSO) for screening (single dose) or in 5μl DMSO for IC50 determinations. […] The filter was washed 3 times with approximately 3 ml of cold 50 mM Tris buffer, pH 7.7, The filter circles were then punched into 12×75 mn polystyrene tubes and counted in a gamma counter. […]

T1 sequence (P25103 whole entry): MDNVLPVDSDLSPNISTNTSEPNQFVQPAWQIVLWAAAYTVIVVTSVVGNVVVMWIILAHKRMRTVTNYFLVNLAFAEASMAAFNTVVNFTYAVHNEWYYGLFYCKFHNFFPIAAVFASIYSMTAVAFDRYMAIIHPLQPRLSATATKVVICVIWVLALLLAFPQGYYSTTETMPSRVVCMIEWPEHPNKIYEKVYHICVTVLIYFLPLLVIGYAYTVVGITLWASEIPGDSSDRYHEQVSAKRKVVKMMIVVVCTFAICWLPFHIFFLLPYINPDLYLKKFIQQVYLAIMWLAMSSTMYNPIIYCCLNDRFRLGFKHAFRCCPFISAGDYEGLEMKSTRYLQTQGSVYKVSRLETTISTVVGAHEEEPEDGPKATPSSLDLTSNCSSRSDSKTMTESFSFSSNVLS

On to `COc1ccccc1CN1CC(c2ccccc2)N=C1C` (centres unmarked) [Example 1, 1-(2-methoxybenzyl)-2-methyl-4-phenyl-2-imidazoline], for which the IC50 was determined as 180 nM in assay [1] and 16 µM in assay [2].
The corresponding values for `COc1ccccc1CN1CC(Cc2c[nH]c3ccccc23)N=C1CN1CCN(c2ccccc2)CC1` (centres unmarked) [Example 2, 1-(2-methoxybenzyl)-2-[(4-phenyl-1-piperazinyl)methyl]-4-(1H-indol-3-ylmethyl)-2-imidazoline] are 120 nM and 0.47 µM.
As to `COc1ccccc1CN1CC(C)(Cc2c[nH]c3ccccc23)N=C1C` (centres unmarked) [Example 3, 1-(2-methoxybenzyl)-2,4-dimethyl-4-(1H-indol-3-ylmethyl)-2-imidazoline], the figures for the IC50 in assay [1] and in assay [2] were 560 nM and 9.1 µM, respectively.
Turning to `COc1ccccc1CN1CC(Cc2ccccc2)N=C1C` (centres unmarked) [Example 4, 1-(2-methoxybenzyl)-2-methyl-4-benzyl-2-imidazoline], the IC50 in assay [1] is 140 nM. The inhibition at 10 µM in assay [2] (at 10 μM, read-out: percent inhibition of neurokinin A binding) was determined as 21%.
